Source: PubChem BioAssay AID1963437 (Molecular Pharmacology Branch, DTP, NCI, 2024)

Tested on: OVCAR-8 complex spheroid, growth inhibition
Experiment: Anticancer human tumor OVCAR-8 cell line growth inhibition [Asc];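 note: spheroids exposed to agents for 7 days before readout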;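 for viability, T/C: percent viability relative to DMSO vehicle wells taken as 100%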
Conditions: for IC50: curve of first compound; for viability, T/C: stronger effect = lower value
Method in brief: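 Tumor cells were grown as complex spheroids with human endothelial cells (HUVEC) and human mesenchymal stem cells as stroma. Agents were tested alone and in combination, in half-log steps down from the clinical Cmax, or from 10 microM where Cmax was unknown.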

For C#Cc1c(F)ccc2cc(O)cc(-c3ncc4c(N5CC6CCC(C5)N6)nc(OCC56CCCN5CC(F)C6)nc4c3F)c12 (configuration not stated) + Cc1c(S(C)(=O)=O)c(-c2cc(F)cc(N3CCN(c4ccc(NS(=O)(=O)c5ccc(NC(CCN6CCC(C(=O)OCCCP(=O)(O)O)CC6)CSc6ccccc6)c(S(=O)(=O)C(F)(F)F)c5)cc4)CC3)c2)c(-c2ccc(Cl)cc2)n1C(C)C, the IC50 (second compound 0.0316 µM) was greater than 10 µM, the IC50 (second compound 0.1 µM) was greater than 10 µM and the IC50 (second compound 0.316 µM) was greater than 10 µM. For the same compound, the IC50 (second compound 1 µM) was greater than 10 µM, the IC50 (second compound 3.16 µM) was greater than 10 µM and the IC50 (second compound 10 µM) was greater than 10 µM. The viability, T/C (second compound 0.0316 µM, first compound 0.0316 µM) was 86.8%, the viability, T/C (second compound 0.0316 µM, first compound 0.1 µM) was 97.1% and the viability, T/C (second compound 0.0316 µM, first compound 0.316 µM) was 87.3%. For the same compound, the viability, T/C (second compound 0.0316 µM, first compound 1 µM) was 76.6%, the viability, T/C (second compound 0.0316 µM, first compound 3.16 µM) was 84.9% and the viability, T/C (second compound 0.0316 µM, first compound 10 µM) was 99.8%. The viability, T/C (second compound 0.1 µM, first compound 0.0316 µM) was 85.2%, the viability, T/C (second compound 0.1 µM, first compound 0.1 µM) was 72.8% and the viability, T/C (second compound 0.1 µM, first compound 0.316 µM) was 90.1%. The viability, T/C (second compound 0.1 µM, first compound 1 µM) was 85.5%, the viability, T/C (second compound 0.1 µM, first compound 3.16 µM) was 90.4% and the viability, T/C (second compound 0.1 µM, first compound 10 µM) was 84.7%. The viability, T/C (second compound 0.316 µM, first compound 0.0316 µM) was 78.2%, the viability, T/C (second compound 0.316 µM, first compound 0.1 µM) was 102% and the viability, T/C (second compound 0.316 µM, first compound 0.316 µM) was 95.4%. The viability, T/C (second compound 0.316 µM, first compound 1 µM) was 105%, the viability, T/C (second compound 0.316 µM, first compound 3.16 µM) was 94% and the viability, T/C (second compound 0.316 µM, first compound 10 µM) was 107%. It also gave a viability, T/C (second compound 1 µM, first compound 0.0316 µM) of 95.1%, a viability, T/C (second compound 1 µM, first compound 0.1 µM) of 79% and a viability, T/C (second compound 1 µM, first compound 0.316 µM) of 84.6%. For the same compound, the viability, T/C (second compound 1 µM, first compound 1 µM) was 111%, the viability, T/C (second compound 1 µM, first compound 3.16 µM) was 106% and the viability, T/C (second compound 1 µM, first compound 10 µM) was 116%. For the same compound, the viability, T/C (second compound 3.16 µM, first compound 0.0316 µM) was 85.1%, the viability, T/C (second compound 3.16 µM, first compound 0.1 µM) was 83.2% and the viability, T/C (second compound 3.16 µM, first compound 0.316 µM) was 89.8%. For the same compound, the viability, T/C (second compound 3.16 µM, first compound 1 µM) was 92.4%, the viability, T/C (second compound 3.16 µM, first compound 3.16 µM) was 102% and the viability, T/C (second compound 3.16 µM, first compound 10 µM) was 108%. For the same compound, the viability, T/C (second compound 10 µM, first compound 0.0316 µM) was 91.5%, the viability, T/C (second compound 10 µM, first compound 0.1 µM) was 92.2% and the viability, T/C (second compound 10 µM, first compound 0.316 µM) was 81.1%. It also gave a viability, T/C (second compound 10 µM, first compound 1 µM) of 113%, a viability, T/C (second compound 10 µM, first compound 3.16 µM) of 94.2% and a viability, T/C (second compound 10 µM, first compound 10 µM) of 122%.
